Results taken from the NIST ThermoML archive (doi:10.1016/j.jct.2016.06.016).

Assays:
[1] = xn = mol fraction of the nth substance listed; settings: 100 kPa, Liquid, x2 = 0; for viscosity: Concentric cylinders viscometry; for mass density: Vibrating tube method
[2] = refractive index (Na D-line) (dimensionless); xn = mol fraction of the nth substance listed; settings: 100 kPa, Liquid, Standard Abbe refractometry, x2 = 0
[3] = 100 kPa, Liquid; for viscosity: Concentric cylinders viscometry; for mass density: Vibrating tube method
[4] = refractive index (Na D-line) (dimensionless); settings: 100 kPa, Liquid, Standard Abbe refractometry

CCCO [propan-1-ol] + CCOC(=O)CCC(=O)OCC
Settings	mass density, [1] [kg/m3]	refractive index, [2]	viscosity, [1] [mPa·s]
288.15 K	807.75	1.3875	2.514
293.15 K	803.77	1.3854	2.208
298.15 K	799.76	1.3834	1.95
303.15 K	795.72	1.3814	1.727
308.15 K	791.64	1.3792	1.542
313.15 K	787.52	1.377	1.378
318.15 K	783.36	1.3748	1.236
323.15 K	779.14	1.3726	1.124

CCCCO [butan-1-ol] + CCOC(=O)CCC(=O)OCC
Settings	mass density, [1] [kg/m3]	refractive index, [2]	viscosity, [1] [mPa·s]
288.15 K	813.46	1.4012	3.365
293.15 K	809.66	1.3992	2.913
298.15 K	805.84	1.3972	2.563
303.15 K	801.99	1.3951	2.257
308.15 K	798.12	1.393	1.994
313.15 K	794.22	1.391	1.779
318.15 K	790.28	1.3889	1.576
323.15 K	786.29	1.3867	1.422

CCOC(=O)CCC(=O)OCC [diethyl butanedioate]
Settings	mass density, [3] [kg/m3]	refractive index, [4]	viscosity, [3] [mPa·s]
288.15 K	1044.83	1.4217	3.195
293.15 K	1039.63	1.4195	2.807
298.15 K	1034.44	1.4173	2.491
303.15 K	1029.25	1.4151	2.229
308.15 K	1024.08	1.4129	2.008
313.15 K	1018.9	1.4108	1.821
318.15 K	1013.72	1.4088	1.66
323.15 K	1008.55	1.4067	1.523

CCCCCCO [hexan-1-ol] + CCOC(=O)CCC(=O)OCC
Settings	mass density, [1] [kg/m3]	refractive index, [2]	viscosity, [1] [mPa·s]
288.15 K	822.26	1.4196	6.308
293.15 K	818.7	1.4176	5.332
298.15 K	815.12	1.4156	4.538
303.15 K	811.52	1.4136	3.896
308.15 K	807.89	1.4117	3.361
313.15 K	804.25	1.4097	2.917
318.15 K	800.56	1.4078	2.546
323.15 K	796.85	1.4058	2.241
